In ChEMBL document CHEMBL2169821, “Design, synthesis, and evaluation of pH-dependent hydrolyzable emetine analogues as treatment for prostate cancer” (J Med Chem, 2012):
Calls of active or inactive are those of the source. No cut-off for these calls is given here.

Assays:
[1] = system: Mus musculus; assay: Toxicity in Balb/c mouse assessed as weight loss at 33 mg/kg, iv qd administered as bolus for 5 days measured within 48 hrs relative to untreated control; format: organism-based; parameters: dose 33 mg/kg, route intravenous; settings: in vivo
[2] = system: Mus musculus; assay: Toxicity in Balb/c mouse assessed as weight loss at 33 mg/kg, iv qd administered as bolus for 5 days measured within 24 hrs (reference value: 1.7%); format: organism-based; parameters: dose 33 mg/kg, route intravenous; settings: in vivo
[3] = system: Mus musculus; assay: Toxicity in Balb/c mouse assessed as lethargy at 33 mg/kg, iv qd administered as bolus for 5 days measured within 48 hrs; format: organism-based; parameters: dose 33 mg/kg, route intravenous; settings: in vivo
[4] = system: Mus musculus; assay: Toxicity in Balb/c mouse assessed as mortality at 33 mg/kg, iv qd administered as bolus for 5 days measured up to 5 days; format: organism-based; parameters: dose 33 mg/kg, route intravenous; settings: in vivo, 120 h
[5] = system: Mus musculus; assay: Toxicity in Balb/c mouse assessed as adverse effects at 100 mg/kg, iv qd administered as bolus for 5 days measured up to 3 weeks; format: organism-based; parameters: dose 100 mg/kg, route intravenous; settings: in vivo
[6] = system: Mus musculus; assay: Toxicity in Balb/c mouse assessed as change in body weight at 100 mg/kg, iv qd administered as bolus for 5 days measured within 48 hrs relative to control; format: organism-based; parameters: dose 100 mg/kg, route intravenous; settings: in vivo
[7] = system: Mus musculus; assay: Toxicity in Balb/c mouse assessed as adverse effects at 100 mg/kg, iv qd administered as bolus for 5 days; format: organism-based; parameters: dose 100 mg/kg, route intravenous; settings: in vivo, 120 h
[8] = system: PC-3; assay: Ratio of compound IC50 to emetine IC50 for human PC3 cells measured on day 5 at pH <7 by MTT assay; format: functional
[9] = system: PC-3; assay: Ratio of compound IC50 to emetine IC50 for human PC3 cells measured on day 5 at pH 7.4 by MTT assay; format: functional
[10] = Chemical stability of the compound in phosphate buffer up to 5 days at pH 7.4 by HPLC analysis; format: physicochemical; settings: for remaining at 120 h: phosphate buffer, pH 7.4, read-out: Stability
[11] = system: PC-3; assay: Cytotoxicity against human PC3 cells measured on day 7 by MTT assay; format: functional, cell-based
[12] = system: PC-3; assay: Cytotoxicity against human PC3 cells measured on day 5 by MTT assay; format: functional, cell-based
[13] = system: LNCaP; assay: Cytotoxicity against human LNCAP cells measured on day 7 by MTT assay; format: functional, cell-based
[14] = Chemical stability of the compound in phosphate buffer up to 48 hrs at pH 6.5 by HPLC analysis; format: physicochemical; settings: pH 6.5, 48 h
[15] = Chemical stability of the compound in phosphate buffer up to 48 hrs at pH 5.5 by HPLC analysis; format: physicochemical; settings: pH 5.5, 48 h
[16] = system: PC-3; assay: Cytotoxicity against human PC3 cells measured on day 3 by MTT assay; format: functional, cell-based
[17] = system: Mus musculus; assay: Toxicity in Balb/c mouse assessed as mortality at 100 mg/kg, iv administered as bolus measured within 48 hrs; format: organism-based; parameters: dose 100 mg/kg, route intravenous; settings: in vivo
[18] = system: PC-3; assay: Cytotoxicity against human PC3 cells by MTT assay; format: functional, cell-based; settings: TDE = time-dependent effect
[19] = system: DU-145; assay: Cytotoxicity against human DU145 cells by MTT assay; format: functional, cell-based; settings: TDE = time-dependent effect
[20] = system: DU-145; assay: Cytotoxicity against human DU145 cells measured on day 7 by MTT assay; format: functional, cell-based
[21] = system: LNCaP; assay: Cytotoxicity against human LNCAP cells by MTT assay; format: functional, cell-based; settings: TDE = time-dependent effect
[22] = system: DU-145; assay: Cytotoxicity against human DU145 cells measured on day 5 by MTT assay; format: functional, cell-based
[23] = system: DU-145; assay: Cytotoxicity against human DU145 cells measured on day 3 by MTT assay; format: functional, cell-based
[24] = system: LNCaP; assay: Cytotoxicity against human LNCAP cells measured on day 3 by MTT assay; format: functional, cell-based
[25] = system: LNCaP; assay: Cytotoxicity against human LNCAP cells measured on day 5 by MTT assay; format: functional, cell-based
[26] = Prodrug activation in phosphate buffer assessed as emetine formation up to 48 hrs at pH 5.5 by HPLC analysis; settings: pH 5.5, 48 h

Structure (SMILES): CC[C@H]1CN2CCc3cc(OC)c(OC)cc3[C@@H]2C[C@@H]1C[C@@H]1c2cc(OC)c(OC)cc2CCN1C(=S)[S-].[Na+]
- Activity [1]: 0.67%
- Activity [2]: 2%
- Activity [3]: Non-toxic
- Activity [4]: Non-toxic
- Activity [5]: Non-toxic
- Activity [6]: Non-toxic
- Activity [7]: Non-toxic
- Ratio IC50 [8]: 1.9
- Ratio IC50 [9]: 16.5
- remaining at 120 h [10]: 100%
- IC50 ([11]; Homo sapiens, PC-3, 168 h): 87 nM
- Activity [12]: Active
- IC50 ([13]; Homo sapiens, LNCaP, 168 h): 79 nM

Structure (SMILES): CC[C@H]1CN2CCc3cc(OC)c(OC)cc3[C@@H]2C[C@@H]1C[C@@H]1c2cc(OC)c(OC)cc2CCN1S(=O)(=O)c1ccc(Cl)cc1
- Stability [14]: Stable
- Stability [15]: Stable
- IC50 ([11]; Homo sapiens, PC-3, 168 h): 4210 nM
- Activity [16]: Active
- Activity [12]: Active
- IC50 ([13]; Homo sapiens, LNCaP, 168 h): 2690 nM

Structure (SMILES): CC[C@H]1CN2CCc3cc(OC)c(OC)cc3[C@@H]2C[C@@H]1C[C@@H]1c2cc(OC)c(OC)cc2CCN1C(=S)NCc1ccc(OC)cc1
- Stability [14]: Stable
- Stability [15]: Stable
- IC50 ([11]; Homo sapiens, PC-3, 168 h): 5000 nM
- Activity [12]: Active
- IC50 ([13]; Homo sapiens, LNCaP, 168 h): 3390 nM

Structure (SMILES): CC[C@H]1CN2CCc3cc(OC)c(OC)cc3[C@@H]2C[C@@H]1C[C@@H]1c2cc(OC)c(OC)cc2CCN1C(=O)NCc1ccc(Cl)cc1
- Stability [14]: Stable
- Stability [15]: Stable
- IC50 ([11]; Homo sapiens, PC-3, 168 h): 10000 nM
- Activity [16]: Active
- Activity [12]: Active
- IC50 ([13]; Homo sapiens, LNCaP, 168 h): 5410 nM

Structure (SMILES): CC[C@H]1CN2CCc3cc(OC)c(OC)cc3[C@@H]2C[C@@H]1C[C@H]1NCCc2cc(OC)c(OC)cc21.Cl.Cl [EMETINE HYDROCHLORIDE]
- Activity [1]: 3.6%
- Activity [2]: 4.5%
- Activity [3]: Toxic
- Activity [4]: Non-toxic
- Activity [17]: Toxic
- Activity [18]: tde
- Activity [19]: tde
- Activity [20]: Dose-dependent effect
- IC50 ([20]; DU-145, 168 h): 23.7 nM
- Activity [21]: tde
- Activity [22]: Dose-dependent effect
- IC50 ([22]; DU-145, 120 h): 25.3 nM
- Activity [23]: Dose-dependent effect
- IC50 ([23]; DU-145, 72 h): 32.9 nM
- Activity [11]: Dose-dependent effect
- IC50 ([11]; Homo sapiens, PC-3, 168 h): 29.4 nM
- Activity [16]: Dose-dependent effect
- IC50 ([16]; PC-3, 72 h): 35.1 nM
- Activity [12]: Dose-dependent effect
- IC50 ([12]; PC-3, 120 h): 26.8 nM
- Activity [13]: Dose-dependent effect
- IC50 ([13]; Homo sapiens, LNCaP, 168 h): 31.6 nM
- Activity [24]: Dose-dependent effect
- IC50 ([24]; 72 h): 37.9 nM
- Activity [25]: Dose-dependent effect

Structure (SMILES): CC[C@H]1CN2CCc3cc(OC)c(OC)cc3[C@@H]2C[C@@H]1C[C@@H]1c2cc(OC)c(OC)cc2CCN1C(=O)CCC(=O)O [listing 1 of 2 here]
- IC50 ([11]; pc-3): 2100 nM
- IC50 ([13]; lncap): 2410 nM

Structure (SMILES): CC[C@H]1CN2CCc3cc(OC)c(OC)cc3[C@@H]2C[C@@H]1C[C@@H]1c2cc(OC)c(OC)cc2CCN1C(=S)NCc1ccccc1
- Stability [14]: Stable
- Stability [15]: Stable
- IC50 ([11]; Homo sapiens, PC-3, 168 h): 6920 nM
- Activity [16]: Active
- Activity [12]: Active
- IC50 ([13]; Homo sapiens, LNCaP, 168 h): 2060 nM

Structure (SMILES): CC[C@H]1CN2CCc3cc(OC)c(OC)cc3[C@@H]2C[C@@H]1C[C@@H]1c2cc(OC)c(OC)cc2CCN1S(=O)(=O)c1ccccc1
- Stability [14]: Stable
- Stability [15]: Stable
- IC50 ([11]; Homo sapiens, PC-3, 168 h): > 10000 nM
- IC50 ([13]; Homo sapiens, LNCaP, 168 h): 2260 nM

Structure (SMILES): CC[C@H]1CN2CCc3cc(OC)c(OC)cc3[C@@H]2C[C@@H]1C[C@@H]1c2cc(OC)c(OC)cc2CCN1C(=O)/C=C(/C)C(=O)O
- Drug metabolism [26]: Active
- Stability ([10]; buffer, pH 7.4, 120 h): 100%
- IC50 ([11]; pc-3): 378 nM
- IC50 ([13]; lncap): 368 nM

Structure (SMILES): CC[C@H]1CN2CCc3cc(OC)c(OC)cc3[C@@H]2C[C@@H]1C[C@@H]1c2cc(OC)c(OC)cc2CCN1C(=O)CCC(=O)O [listing 2 of 2 here]
- IC50 ([11]; Homo sapiens, PC-3, 168 h): 2150 nM
- IC50 ([13]; Homo sapiens, LNCaP, 168 h): 2450 nM

Structure (SMILES): CC[C@H]1CN2CCc3cc(OC)c(OC)cc3[C@@H]2C[C@@H]1C[C@@H]1c2cc(OC)c(OC)cc2CCN1C(=O)/C=C\C(=O)[O-].[Na+]
- Drug metabolism [26]: Active
- remaining at 120 h [10]: 100%
- IC50 ([11]; Homo sapiens, PC-3, 168 h): 7710 nM
- IC50 ([13]; Homo sapiens, LNCaP, 168 h): 8900 nM
